Laboratory results from US11739053B2, “P62-ZZ chemical inhibitor” (ID4PHARMA, LLC, priority 2011, dated 2023).

Legend:
phospho-PKCζ = assay: TNF-α induced PKCζ phosphorylation in marrow stromal cells, Western blot; assay type: cell-based, human or mouse; details: pre-treated 3 hours, 10 ng/ml TNF-α 5 min
Method: FIG. 6. The effect of p62-ZZ Inhibitors on phospho-PKCζ activation by TNFα stimulated MM patient and mouse marrow stromal cells. For assay of phospho-PKCz, cells were stimulated with 10 ng/ml of TNFα for 5 min and cell lysates were collected. The phospho PKCζ was assayed by Western blot using anti-phospho PKCz anti-body (Cell Signaling). Phospho-PKCζ is an unique downstream signal activated by interactions with the p62-ZZ domain. Therefore, we examined whether p62-ZZ inhibitor #3 blocked its phosphorylation. Marrow stromal cells derived from patients with multiple myeloma or mouse stromal cells were cultured in 10% FBS IMDM and then pre-treated with various p62-ZZ inhibitors for 3 hours. For assay of phospho-PKCζ, cells were stimulated with 10 ng/ml of TNF-a for 5 min and the cell lysates were collected. Phospho PKCζ was assayed by Western blot using an anti-phospho PKCζ anti-body (Cell Signaling). TNF-α induced PKCζ phosphorylation in stromal cells was blocked when the cells were pre-treated with p62-ZZ inhibitor #3 for 3 hours.

human OCL formation = assay: Human osteoclast (OCL) formation; assay type: cell-based; details: various concentrations, 2 weeks, 1 ng/ml TNFα
Method: FIG. 7A-C: 7A. CFU-Blast colony formation. Human CD34(+) cells were cultured with p62-ZZ inhibitor #3 and 1 ng/ml of rhIL-3 IL-6 and SCF for 7 days. Data are shown as the mean±SD (n=5). FIG. 7B. Human OCL formation. Non-adherent mononuclear cells (2.5×10^7 cells/10-cm dish) derived from human bone marrow samples were cultured in α-MEM containing 10% FCS, 100 pg/ml recombinant human GM-CSF(R & D) for 7 days. Then the cells were collected and plated (cell density is 1.0×10^6 cells/nil) in α-MEM containing 20% horse serum with 1 ng/ml TNFα. Half-media changes were performed twice a week containing various concentrations of the p62-ZZ inhibitor #3. The cultures were incubated for a total of 2 weeks at 37° C. with 5% CO2 and 95% humidity. The osteoclasts were stained with the 23C6 antibody which recognizes CD51/61. Data are shown as the mean±SD (n=5). *P<0.01 compared to vehicle treated cultures. 7C. OCL formation by wild type and p62−/− mouse osteoclast precursors. Data is shown as the mean±SD (n=4). *: P<0.01 compared to no-inhibitor cultures. Whether p62-ZZ inhibitor #3 affects hematopoesis since osteoclast precursors are derived from hematopoietic cells was examined. […] Colonies were scored after 7 days of culture using an inverted microscope.

MM1.S cells [1] = assay: TUNEL apoptosis detection in MM1.S cells; assay type: cell-based, human; details: 10 μM, after 24 hours
Method: (§1) FIG. 9A-C: 9A. […] MM1.S cells were cultured with 10 μM of p62-ZZ antagonist for the indicated time, and then cell lysates were collected. Caspase 9, 7 and 3 were detected by Western blotting using anti-caspase 9, 7 and 3 specific antibodies (Cell Signaling). FIG. 9B. Detection of Apoptosis using the TUNEL reaction with MM1.S cells treated with p62-ZZ antagonist. MM1.S cells were treated with 10/μM of p62-ZZ antagonist #3 for 24 hours and then the cells were collected and mounted on glass slides using the cytospin procedure. Terminal deoxynucleotidyl transferase nick end labeling (TUNEL) reactions were conducted using an In Situ Cell Death Detection Kit (Roche) according to the manufacturer's instructions. The stained cells were analyzed using a fluorescence microscope equipped with standard green filter. FIG. 9C. The p62-ZZ antagonist induced Reactive Oxygen Species in MM1.S cells. MM1.S cells were treated with 10 μM of p62-ZZ antagonist #3 for 6 hours. Cells were collected and stained for Reactive Oxygen Species (ROS) using a Total ROS detection kit (Enzo) according to the manufacturer's instructions. The expression of apoptosis markers in p62-ZZ antagonist treated on 25 MM cells was determined to determine the mechanism action of this antagonist.

MM1.S cells [2] = assay: Reactive oxygen species detection in MM1.S cells; assay type: cell-based, human; details: 10 μM, 6 hours
Method: as §1

in vivo = details: mouse, iv
Method: FIG. 10A-D: 10A. Single dose acute toxicity study by Up/Down Methods. Body weights of the mice following dosing. FIG. 10B. Mean body weights of mice during multidose MTD study. Data are shown as mean±SD for 5 mice. FIG. 10C. Median body weight of mice during multidose MTD study. FIG. 10D. Plasma concentrations p62-ZZ antagonist in pilot mice after 100 mg/kg IV.
Preliminary in vivo studies of the p62-ZZ antagonist #3 were performed 5 to determine the toxicity, multiple doses MTD and plasma concentration of the antagonist given IV. For the pilot PK study the prototype p62-ZZ antagonist (compound #3) was used as an internal standard for Mass spectroscopy assays.

In the case of `OCCNCc1ccc(OCc2ccccc2)c(OCc2ccccc2)c1` [Compound 3, 2-[[3,4-bis(phenylmethoxy)phenyl]methylamino]ethanol], the “TNF-α induced PKCζ phosphorylation in stromal cells” value (phospho-PKCζ) was “blocked”, the “human OCL formation” value (human OCL formation) was “blocked human OCL formation dose dependently” and the “TUNEL staining of cells” value (MM1.S cells [1]) was “positive TUNEL staining”. For the same compound, the “reactive oxygen species (ROS) production” value (MM1.S cells [2]) was “induced reactive oxygen species (ROS) production” and the half-life (in vivo) was 240 min.
